In patent publication US9468661B2, “Pyrrolidine derivatives and their use as complement pathway modulators” (priority 2012, dated 2016) one finds IC50 data, which are given here for twelve molecules.

Chain of human factor D (P00746 26-253): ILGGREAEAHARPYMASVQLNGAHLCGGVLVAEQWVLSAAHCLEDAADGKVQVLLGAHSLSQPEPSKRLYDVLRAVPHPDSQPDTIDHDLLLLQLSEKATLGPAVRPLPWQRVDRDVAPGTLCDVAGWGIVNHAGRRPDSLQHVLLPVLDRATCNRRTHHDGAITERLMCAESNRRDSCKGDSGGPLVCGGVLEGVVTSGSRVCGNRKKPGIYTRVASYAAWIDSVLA

The target of the first assay is human factor D (Homo sapiens (Human), UniProt P00746). Nature of the assay: biochemical. Format: biochemical. Conditions: Factor D inhibition data using Method 1; recombinant human factor D 10 nM, substrate Z-Lys-thiobenzyl, fluorescence; read-out: IC50. In a few lines:
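E. coli-expressed recombinant human factor D (10 nM) was preincubated with compound for 1 h at room temperature in 0.1 M Hepes pH 7.5, 1 mM MgCl2, 1 M NaCl, 0.05% CHAPS. Fluorescence (ex 485/em 535 nm) was read after adding Z-Lys-thiobenzyl (200 μM) and 2,4-dinitrobenzenesulfonyl-fluoresceine (25 μM); IC50 came from percent inhibition versus concentration.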
Broadly, the IC50 is the point on the concentration scale where inhibition reaches its midpoint. For the molecule `CC(=O)c1nn(CC(=O)N2[C@@H]3C[C@@H]3C[C@H]2C(=O)NCC2CC(F)(F)C2)c2ccc(OCc3ncccn3)cc12` [Example 62, (1R,3S,5R)-2-{2-[3-Acetyl-5-(pyrimidin-2-ylmethoxy)-indazol-1-yl]-acetyl}-2-aza-bicyclo[3.1.0] hexane-3-carboxylic acid (3,3-difluoro-cyclobutylmethyl)-amide], the IC50 was determined as 162 nM.
`CC1CCCC1CNC(=O)[C@@H]1C[C@H]2C[C@H]2N1C(=O)Cn1nc(C(N)=O)c2ccncc21` (single isomer, unassigned; dia 1) [Example 85]: the IC50 amounted to 1410 nM.
Consider `CC(=O)c1nn(CC(=O)N2[C@@H]3C[C@@H]3C[C@H]2C(=O)NCC2(C)CC2(Cl)Cl)c2cnccc12` (stereo partly drawn) [Example 13, (1R,3S,5R)-2-[2-(3-Acetyl-pyrazolo[3,4-c]pyridin-1-yl)-acetyl]-2-aza-bicyclo[3.1.0] hexane-3-carboxylic acid (2,2-dichloro-1-methyl-cyclopropylmethyl)-amide], for which the IC50 was found to be 958 nM.
Take `CC1CCCC1CNC(=O)[C@@H]1C[C@H]2C[C@H]2N1C(=O)Cn1nc(C(N)=O)c2ccncc21` (single isomer, unassigned; dia 3) [Example 87]: the IC50 turned out to be 459 nM.
As for `CC(=O)c1nn(CC(=O)N2[C@@H]3C[C@@H]3C[C@H]2C(=O)NC[C@H]2CC2(Cl)Cl)c2ccc(OC(C)c3ncccn3)cc12` (stereo partly drawn) [Example 100, (1R,3S,5R)-2-{2-[3-Acetyl-5-(1-pyrimidin-2-yl-ethoxy)-indazol-1-yl]-acetyl}-2-aza-bicyclo[3.1.0]hexane-3-carboxylic acid ((R)-2,2-dichloro-cyclopropylmethyl)-amide], the IC50 turned out to be 158 nM.
`CC(=O)c1nn(CC(=O)N2[C@@H]3C[C@@H]3C[C@H]2C(=O)NC[C@@H]2C(C)(C)C2(Cl)Cl)c2ccc(OCc3ncccn3)cc12` [Example 103, (1R,3S,5R)-2-{2-[3-Acetyl-5-(pyrimidin-2-ylmethoxy)-indazol-1-yl]-acetyl}-2-aza-bicyclo[3.1.0] hexane-3-carboxylic acid ((S)-2,2-dichloro-3,3-dimethyl-cyclopropylmethyl)-amide]: the IC50 was 70 nM.
In the case of `CC(=O)c1nn(CC(=O)N2[C@@H]3C[C@@H]3C[C@H]2C(=O)NC[C@H]2CC2(Cl)Cl)c2ccc(O)cc12` [Example 122, (1R,3S,5R)-2-[2-(3-Acetyl-5-hydroxy-indazol-1-yl)-acetyl]-2-aza-bicyclo[3.1.0]hexane-3-carboxylic acid ((R)-2,2-dichloro-cyclopropylmethyl)-amide], the IC50 is 58 nM.
As for `CC(=O)c1nn(CC(=O)N2[C@@H]3C[C@@H]3C[C@H]2C(=O)N[C@H](C)[C@H]2CC2(Cl)Cl)c2ccc(OCc3ncn(C)n3)cc12` [Example 61, (1R,3S,5R)-2-{2-[3-Acetyl-5-(1-methyl-1H-[1,2,4]triazol-3-ylmethoxy)-indazol-1-yl]-acetyl}-2-aza-bicyclo[3.1.0]hexane-3-carboxylic acid [(R)-1-((R)-2,2-dichloro-cyclopropyl)-ethyl]-amide], the IC50 is 3 nM.
For `CC(=O)c1nn(CC(=O)N2[C@@H]3C[C@@H]3C[C@H]2C(=O)NCC2C(C)(C)C2(C)C)c2ncccc12` [Example 2, (1R,3S,5R)-2-[2-(3-Acetyl-pyrazolo[3,4-b]pyridin-1-yl)-acetyl]-2-aza-bicyclo[3.1.0] hexane-3-carboxylic acid (2,2,3,3-tetramethyl-cyclopropylmethyl)-amide], the IC50 turned out to be 1850 nM.

Staying with this assay, now noted: IC50, Factor D inhibition data using Method 1; recombinant human factor D 10 nM, substrate Z-Lys-thiobenzyl, fluorescence.
Consider `CC1C(CNC(=O)[C@@H]2C[C@H]3C[C@H]3N2C(=O)Cn2nc(C(N)=O)c3ccncc32)C1(Cl)Cl` (single isomer, unassigned; dia 1) [Example 79, 1-(2-{(1R,3S,5R)-3-[((1R,3S) or (1S,3R)-2,2-Dichloro-3-methyl-cyclopropylmethyl)-carbamoyl]-2-aza-bicyclo[3.1.0]hex-2-yl}-2-oxo-ethyl)-1H-pyrazolo[3,4-c]pyridine-3-carboxylic acid amide-Dia 1], for which the IC50 was found to be 229 nM.
As to `CC1C(CNC(=O)[C@@H]2C[C@H]3C[C@H]3N2C(=O)Cn2nc(C(N)=O)c3ccccc32)C1(Cl)Cl` (single isomer, unassigned; dia 1) [Example 73, 1-(2-{(1R,3S,5R)-3-[((1R,3R) or (1S,3S)-2,2-Dichloro-3-methyl-cyclopropylmethyl)-carbamoyl]-2-aza-bicyclo[3.1.0]hex-2-yl}-2-oxo-ethyl)-1H-indazole-3-carboxylic acid amide-Dia 1], the IC50 is 100 nM.
Same read-out and setting: then `NC(=O)c1nn(CC(=O)N2[C@@H]3C[C@@H]3C[C@H]2C(=O)NC(CO)C2CC2(Cl)Cl)c2ccccc12` (single isomer, unassigned; dia 3) [Example 50], with 7300 nM.
